What was measured:
Assay in all cases: relative viability (nuclei count vs DMSO), 5 days (fraction); higher = more cells survive
[1] = test system: NCI-H1915
Summary of the method: (§1)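 Each reported value is a median over duplicate plates. It expresses relative viability: treated-well nuclei count divided by vehicle-well nuclei count. Lung cancer cell lines in 1536-well plates were dosed by pin tool a day after seeding, alone with one drug or with a fixed anchor-drug dose plus five library-drug doses (not always all listed) in √10 steps, and nuclei were counted after 5 days.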

[2] = test system: NCI-H1437
Summary of the method: as §1

[3] = test system: HCC-44
Summary of the method: as §1

[4] = test system: HCC-15
Summary of the method: as §1

[5] = test system: NCI-H727
Summary of the method: as §1

[6] = test system: NCI-H2170
Summary of the method: as §1

[7] = test system: NCI-H1755
Summary of the method: as §1

[8] = test system: NCI-H3122
Summary of the method: as §1

[9] = test system: HOP-62
Summary of the method: as §1

[10] = test system: BEN
Summary of the method: as §1

[11] = test system: NCI-H650
Summary of the method: as §1

With `CCNC(=O)c1noc(-c2cc(C(C)C)c(O)cc2O)c1-c1ccc(CN2CCOCC2)cc1` [Luminespib] + O=C(c1cc(Cc2n[nH]c(=O)c3ccccc23)ccc1F)N1CCN(C(=O)C2CC2)CC1 [Olaparib] (partner 8 µM) the relative viability ([1]; first compound 0.02 µM) was 0.306, the relative viability ([1]; first compound 0.06325 µM) was 0.148 and the relative viability ([1]; first compound 0.2 µM) was 0.124. For the same compound, the relative viability ([2]; first compound 0.002 µM) was 0.806, the relative viability ([2]; first compound 0.006325 µM) was 0.63 and the relative viability ([2]; first compound 0.02 µM) was 0.684. It also gave a relative viability ([2]; first compound 0.06325 µM) of 0.259, a relative viability ([2]; first compound 0.2 µM) of 0.211 and a relative viability ([3]; first compound 0.002 µM) of 0.981. The relative viability ([3]; first compound 0.006325 µM) was 0.952, the relative viability ([3]; first compound 0.02 µM) was 1.07 and the relative viability ([3]; first compound 0.06325 µM) was 0.944. It also gave a relative viability ([3]; first compound 0.2 µM) of 0.52, a relative viability ([4]; first compound 0.002 µM) of 0.778 and a relative viability ([4]; first compound 0.006325 µM) of 0.682. It also gave a relative viability ([4]; first compound 0.02 µM) of 0.734, a relative viability ([4]; first compound 0.06325 µM) of 0.345 and a relative viability ([4]; first compound 0.2 µM) of 0.154. It also gave a relative viability ([5]; first compound 0.002 µM) of 0.674, a relative viability ([5]; first compound 0.006325 µM) of 0.767 and a relative viability ([5]; first compound 0.02 µM) of 0.695. The relative viability ([5]; first compound 0.06325 µM) was 0.403, the relative viability ([5]; first compound 0.2 µM) was 0.271 and the relative viability ([6]; first compound 0.002 µM) was 0.659. For the same compound, the relative viability ([6]; first compound 0.006325 µM) was 0.539, the relative viability ([6]; first compound 0.06325 µM) was 0.468 and the relative viability ([6]; first compound 0.2 µM) was 0.16. For the same compound, the relative viability ([7]; first compound 0.002 µM) was 0.917, the relative viability ([7]; first compound 0.006325 µM) was 0.808 and the relative viability ([7]; first compound 0.02 µM) was 0.759. It also gave a relative viability ([7]; first compound 0.06325 µM) of 0.817, a relative viability ([7]; first compound 0.2 µM) of 0.794 and a relative viability ([8]; first compound 0.002 µM) of 0.626. For the same compound, the relative viability ([8]; first compound 0.006325 µM) was 0.567, the relative viability ([8]; first compound 0.02 µM) was 0.68 and the relative viability ([8]; first compound 0.06325 µM) was 0.56. The relative viability ([8]; first compound 0.2 µM) was 0.646, the relative viability ([9]; first compound 0.002 µM) was 0.533 and the relative viability ([9]; first compound 0.006325 µM) was 0.453. It also gave a relative viability ([9]; first compound 0.02 µM) of 0.723, a relative viability ([9]; first compound 0.06325 µM) of 0.0994 and a relative viability ([9]; first compound 0.2 µM) of 0.138. For the same compound, the relative viability ([10]; first compound 0.002 µM) was 1.24, the relative viability ([10]; first compound 0.006325 µM) was 0.905 and the relative viability ([10]; first compound 0.02 µM) was 0.823. For the same compound, the relative viability ([10]; first compound 0.06325 µM) was 0.273, the relative viability ([10]; first compound 0.2 µM) was 0.279 and the relative viability ([11]; first compound 0.002 µM) was 0.452. For the same compound, the relative viability ([11]; first compound 0.006325 µM) was 0.338, the relative viability ([11]; first compound 0.02 µM) was 0.34 and the relative viability ([11]; first compound 0.06325 µM) was 0.061. For the same compound, the relative viability ([11]; first compound 0.2 µM) was 0.0723.

Reference: the supplement of paper PMC10307832
